Counter-ions that a name gives are not always drawn.
Assays:
PPARγ = target: T1, PPARγ (Homo sapiens, UniProt P37231); assay: Cross-curve PPAR transactivation test, PPARγ; assay type: cell-based; conditions: HeLN cells stably transfected with Gal-hPPAR and luciferase reporter; cross curves against reference agonist, Schild regression; n.a means not active; read-out: PPAR gamma Kd app
T1 construct: The reporter is ERE-βGlob-Luc-SV-Neo
T1 sequence (P37231 238-505 limits assumed): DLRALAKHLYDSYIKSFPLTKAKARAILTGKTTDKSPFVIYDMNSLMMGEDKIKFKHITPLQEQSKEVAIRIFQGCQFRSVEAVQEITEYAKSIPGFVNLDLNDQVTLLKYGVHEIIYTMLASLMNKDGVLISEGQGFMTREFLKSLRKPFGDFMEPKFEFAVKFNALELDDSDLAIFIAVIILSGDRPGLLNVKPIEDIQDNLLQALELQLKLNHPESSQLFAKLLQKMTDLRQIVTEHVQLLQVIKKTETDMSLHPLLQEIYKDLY
Procedure: (§1) The activation of the receptors with an agonist (activator) in HeLN cells leads to the expression of a reporter gene, luciferase, which, in the presence of a substrate, generates light. The modulation of the receptors is measured by quantifying the luminescence produced after incubating the cells in the presence of a reference agonist. The ligands displace the agonist from its site. The measurement of the activity is performed by quantifying the light produced. This measurement makes it possible to determine the modulatory activity of the compounds according to the invention by determining the constant that is the affinity of the molecule for the receptor. Since this value can fluctuate depending on the basal activity and the expression of the receptor, it is referred to as Kd apparent (KdApp in nM).
(§2) To determine this constant, “cross curves” of the test product against a reference agonist are produced in a 96-well plate: 10 concentrations of the test product plus a concentration 0 are arranged in a line, and 7 concentrations of the agonist plus a concentration 0 are arranged in a column. This is 88 measurement points for 1 product and 1 receptor. The remaining 8 wells are used for repeatability controls.
(§3) Measurements are also taken for total agonist controls with the same products.
(§4) The HeLN cell lines used are stable transfectants containing the plasmids ERE-βGlob-Luc-SV-Neo (reporter gene) and PPAR (α, δ, γ) Gal-hPPAR. These cells are inoculated into 96-well plates at a rate of 10-000 cells per well in 100 μL of DMEM medium without phenol red and supplemented with 10% of defatted calf serum. The plates are then incubated at 37° C. and 7% CO2 for 16 hours. The various dilutions of the test products and of the reference ligand are added at a rate of 5 μL per well. The plates are then incubated for 18 hours at 37° C. and 7% CO2.
(§5) The culture medium is removed by turning over and 100 μL of a 1:1 PBS/luciferin mixture are added to each well. After 5 minutes, the plates are read by the luminescence detector.

PPARδ = target: T2, PPARδ (Homo sapiens, UniProt Q03181); assay: Cross-curve PPAR transactivation test, PPARδ; assay type: cell-based; conditions: HeLN cells stably transfected with Gal-hPPAR and luciferase reporter; cross curves against reference agonist, Schild regression; n.a means not active; read-out: PPARs delta Kd app
T2 construct: The reporter is ERE-βGlob-Luc-SV-Neo
T2 sequence (Q03181 211-441 limits assumed): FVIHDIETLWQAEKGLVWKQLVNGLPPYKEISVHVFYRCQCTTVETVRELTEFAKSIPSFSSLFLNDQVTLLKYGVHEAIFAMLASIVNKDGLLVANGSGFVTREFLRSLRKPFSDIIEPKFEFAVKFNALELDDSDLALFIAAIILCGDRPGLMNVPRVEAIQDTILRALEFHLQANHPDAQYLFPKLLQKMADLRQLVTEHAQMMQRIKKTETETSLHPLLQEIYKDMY
Procedure: as §1, §2, §3, §4, §5

PPARα = target: T3, PPARα (Homo sapiens, UniProt Q07869); assay: Cross-curve PPAR transactivation test, PPARα; assay type: cell-based; conditions: HeLN cells stably transfected with Gal-hPPAR and luciferase reporter; cross curves against reference agonist, Schild regression; n.a means not active; read-out: PPAR alpha Kd app
T3 construct: The reporter is ERE-βGlob-Luc-SV-Neo
T3 sequence (Q07869 200-468 limits assumed): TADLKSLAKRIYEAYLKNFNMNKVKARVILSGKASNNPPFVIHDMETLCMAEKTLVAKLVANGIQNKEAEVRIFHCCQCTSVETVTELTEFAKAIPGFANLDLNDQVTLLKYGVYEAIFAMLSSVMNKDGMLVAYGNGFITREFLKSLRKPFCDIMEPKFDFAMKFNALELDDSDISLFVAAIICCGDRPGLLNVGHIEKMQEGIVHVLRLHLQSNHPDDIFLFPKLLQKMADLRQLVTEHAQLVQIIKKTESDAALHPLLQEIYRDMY
Procedure: as §1, §2, §3, §4, §5

Kd (PPARγ) [nM]	Kd (PPARδ) [nM]	Kd (PPARα) [nM]	Structure (SMILES)	melting point [°C]
4	–	–	CCCCCCCNC(=O)N(C)c1cccc(-c2ccc(/C=C(\OCC)C(=O)O)cn2)c1 [Compound 4, (Z)-2-ethoxy-3-{6-[3-(3-heptyl-1-methylureido)phenyl]pyrid-3-yl}acrylic acid hydrochloride]	–
4	–	–	CCCCNC(=O)N(C)c1cccc(-c2ccc(/C=C(\OC)C(=O)O)cc2)c1 [Compound 11, (Z)-3-[3′-(3-butyl-1-methylureido)biphenyl-4-yl]-2-methoxyacrylic acid]	–
–	–	–	CCCCCNC(=O)N(C)c1cccc(-c2ccc(/C=C(\OC)C(=O)O)cc2OCCCC)c1 [Compound 24, (Z)-3-[2-butoxy-3′-(1-methyl-3-pentylureido)biphenyl-4-yl]-2-methoxyacrylic acid]	61
8	–	–	CO/C(=C\c1ccc(-c2cccc(N(C)C(=O)NCCc3ccccc3)c2)cc1)C(=O)O [Compound 16, (Z)-2-methoxy-3-[3′-(1-methyl-3-phenethylureido)biphenyl-4-yl]acrylic acid]	–
2	–	–	CCCCCCCNC(=O)N(C)c1cccc(-c2ccc(/C=C(\C)C(=O)O)cc2)c1 [Compound 5, (E)-3-[3′-(3-heptyl-1-methylureido)biphenyl-4-yl]-2-methylacrylic acid]	–
30	–	–	CCCCCNC(=O)N(C)c1cccc(-c2ccc(/C=C(\OCC)C(=O)O)cc2)n1 [Compound 3, (Z)-2-ethoxy-3-{4-[6-(1-methyl-3-pentylureido)pyrid-2-yl]phenyl}acrylic acid]	162
4	–	–	CCCCCCCNC(=O)N(C)c1cccc(-c2ccc(/C=C(\CC)C(=O)O)cc2)c1 [Compound 7, 2-[1-[3′-(3-heptyl-1-methylureido)biphenyl-4-yl]meth-(E)-ylidene]butyric acid]	–
8	4000	–	CCCCCNC(=O)N(C)c1cccc(-c2ccc(/C=C(\OC)C(=O)O)cc2)c1 [Compound 13, (Z)-2-Methoxy-3-[3′-(1-methyl-3-pentylureido)biphenyl-4-yl]acrylic acid]	–
4	–	–	CCO/C(=C\c1ccc(-c2cccc(N(C)C(=O)NCCc3ccccc3)c2)cc1)C(=O)O [Compound 10, (Z)-2-ethoxy-3-[3′-(1-methyl-3-phenethylureido)biphenyl-4-yl]acrylic acid]	–
1	–	4000	CCCCCCCNC(=O)N(C)c1cccc(-c2ccc(/C=C(\C)C(=O)O)cc2OCC)c1 [Compound 32, (E)-3-[2-ethoxy-3′-(3-heptyl-1-methylureido)biphenyl-4-yl]-2-methylacrylic acid]	–
60	4000	–	COC(=O)/C(=C/c1ccc(-c2cccc(N(C)C(=O)NC3CCCCC3)c2)cc1)OC [Compound 14, Methyl (Z)-3-[3′-(3-cyclohexyl-1-methylureido)biphenyl-4-yl]-2-methoxyacrylate]	–
8	–	–	CO/C(=C\c1ccc(-c2cccc(N(C)C(=O)NC3CCCCC3)c2)cc1)C(=O)O [Compound 15, (Z)-3-[3′-(3-cyclohexyl-1-methylureido)biphenyl-4-yl]-2-methoxyacrylic acid]	–
60	–	–	CCCCCCCNC(=O)N(C)c1cccc(-c2ccc(/C=C(\F)C(=O)O)cc2)c1 [Compound 6, (Z)-2-fluoro-3-[3′-(3-heptyl-1-methylureido)biphenyl-4-yl]acrylic acid]	–
4	2000	2000	CCCCCNC(=O)N(C)c1cccc(-c2ccc(/C=C(\CC)C(=O)O)cc2)c1 [Compound 9, 2-[1-[3′-(1-methyl-3-pentylureido)biphenyl-4-yl]meth-(E)-ylidene]butyric acid]	–
4	2000	500	CCCCCNC(=O)N(C)c1cccc(-c2ccc(/C=C(\CCC)C(=O)O)cc2)c1 [Compound 8, 2-[1-[3′-(1-methyl-3-pentylureido)biphenyl-4-yl]meth-(E)-ylidene]pentanoic acid]	–
30	–	1000	CCCCCCCNC(=O)N(C)c1cccc(-c2ccc(/C=C(\OCC)C(=O)O)cc2)n1 [Compound 2, (Z)-2-ethoxy-3-{4-[6-(3-heptyl-1-methylureido)pyrid-2-yl]phenyl}acrylic acid]	–
30	–	2000	CCCCCCCC(=O)N(C)Cc1cccc(-c2ccc(/C=C(\OCC)C(=O)O)cc2)c1 [Compound 1, (Z)-2-ethoxy-3-{3′-[(methyloctanoylamino)methyl]biphenyl-4-yl}acrylic acid]	–
2	–	–	CCCCCCCNC(=O)N(C)c1cccc(-c2ccc(/C=C(\C)C(=O)O)cc2OCCC)c1 [Compound 31, (E)-3-[3′-(3-heptyl-1-methylureido)-2-propoxybiphenyl-4-yl]-2-methylacrylic acid]	–

Structure (SMILES)	Kd (PPARγ) [nM]	Kd (PPARδ) [nM]	Kd (PPARα) [nM]	melting point [°C]
CCCCOc1cc(/C=C(\C)C(=O)O)ccc1-c1cccc(CN(C)C(=O)c2cccc(OC)c2)c1 [Compound 21, (E)-3-(2-butoxy-3′-{[(3-methoxybenzoyl)methylamino]methyl}biphenyl-4-yl)-2-methylacrylic acid]	30	–	–	–
CCCCOc1cc(/C=C(\CC)C(=O)O)ccc1-c1cccc(CN(C)C(=O)c2ccccc2)c1 [Compound 22, 2-[1-{3′-[(benzoylmethylamino)methyl]-2-butoxybiphenyl-4-yl}meth-(E)-ylidene]butyric acid]	120	–	–	–

Reference: patent US8383652B2, “Biaromatic compounds that modulate PPAR-receptors” (Galderma Research & Development, priority 2005, dated 2013)
